Assay results published in patent publication US10597388B2, “Pyridazinone herbicides” (FMC CORPORATION, priority 2014, dated 2020).

Tests used:
Test in all cases: Test D controlled growth environment herbicide test, pre- and postemergence
Type in all cases: in vivo
[1] = test system: foxtail, green (green foxtail, Setaria viridis)
Method in brief: (§1)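 Pre-emergence: seeds sown in silt loam soil were sprayed with compound in a non-phytotoxic solvent mix containing surfactant. Post-emergence: plants at 2 to 18 cm (1- to 4-leaf stage) in peat moss/vermiculite medium got the same formulation. Visual 0–100 rating versus controls after 14 to 21 d.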

[2] = test system: bromegrass, downy (downy bromegrass, Bromus tectorum)
Method in brief: as §1

[3] = test system: ryegrass, Italian (Italian ryegrass, Lolium multiflorum)
Method in brief: as §1

[4] = test system: wheat, spring (spring wheat, Triticum aestivum)
Method in brief: as §1

[5] = test system: field poppy (Papaver rhoeas)
Method in brief: as §1

[6] = test system: lambsquarters (Chenopodium album)
Method in brief: as §1

[7] = test system: chickweed (common chickweed, Stellaria media)
Method in brief: as §1

[8] = test system: barley, winter (winter barley, Hordeum vulgare)
Method in brief: as §1

[9] = test system: blackgrass (Alopecurus myosuroides)
Method in brief: as §1

[10] = test system: chamomile (scentless chamomile, Matricaria inodora)
Method in brief: as §1

[11] = test system: barley, spring (spring barley, Hordeum vulgare)
Method in brief: as §1

[12] = test system: wheat, winter (winter wheat, Triticum aestivum)
Method in brief: as §1

[13] = test system: deadnettle (henbit deadnettle, Lamium amplexicaule)
Method in brief: as §1

[14] = Postemergence, 31 g ai/ha, scale 0 to 100 (0 no effect, 100 complete control)
[15] = Postemergence, 125 g ai/ha, visual rating on scale 0 (no effect) to 100 (complete control), 14 to 21 d
[16] = Postemergence, 250 g ai/ha, scale 0 to 100 (0 no effect, 100 complete control)
[17] = Preemergence, 62 g ai/ha, scale 0 to 100 (0 no effect, 100 complete control)
[18] = Preemergence, 125 g ai/ha, scale 0 to 100 (0 no effect, 100 complete control)
[19] = Preemergence, 250 g ai/ha, scale 0 to 100 (0 no effect, 100 complete control)
[20] = postemergence, 62 g ai/ha, scale 0 to 100, 0 no effect, 100 complete control

Structure (SMILES): COC(=O)Oc1c(C)nn(C)c(=O)c1-c1c(C)sc2c(C)cc(C)cc12 [Compound 81]
- Foxtail, Green plant response rating [1, 14]: 80
- Plant response rating, Foxtail, Green [1, 15]: 95
- Plant response rating, Foxtail, Green [1, 16]: 100
- Plant response rating (scale of 0 to 100), Foxtail, Green ([1]; Preemergence, 31 g ai/ha): 75
- Plant response rating, Foxtail, Green [1, 17]: 65
- Plant response rating, Foxtail, Green [1, 18]: 100
- Plant response rating, Foxtail, Green [1, 19]: 100
- Plant response rating, Foxtail, Green [1, 20]: 95
- Bromegrass, Downy plant response rating [2, 14]: 15
- Plant response rating, Bromegrass, Downy [2, 15]: 65
- Plant response rating, Bromegrass, Downy [2, 16]: 75
- Plant response rating (scale of 0 to 100), Bromegrass, Downy ([2]; Preemergence, 31 g ai/ha): 20
- Plant response rating, Bromegrass, Downy [2, 17]: 45
- Plant response rating, Bromegrass, Downy [2, 18]: 15
- Plant response rating, Bromegrass, Downy [2, 19]: 75
- Plant response rating, Bromegrass, Downy [2, 20]: 35
- Ryegrass, Italian plant response rating [3, 14]: 85
- Plant response rating, Ryegrass, Italian [3, 15]: 95
- Plant response rating, Ryegrass, Italian [3, 16]: 95
- Plant response rating (scale of 0 to 100), Ryegrass, Italian ([3]; Preemergence, 31 g ai/ha): 55
- Plant response rating, Ryegrass, Italian [3, 17]: 65
- Plant response rating, Ryegrass, Italian [3, 18]: 85
- Plant response rating, Ryegrass, Italian [3, 19]: 100
- Plant response rating, Ryegrass, Italian [3, 20]: 90
- Wheat, Spring plant response rating [4, 14]: 0
- Plant response rating, Wheat, Spring [4, 15]: 0
- Plant response rating, Wheat, Spring [4, 16]: 20
- Plant response rating (scale of 0 to 100), Wheat, Spring ([4]; Preemergence, 31 g ai/ha): 0
- Plant response rating, Wheat, Spring [4, 17]: 0
- Plant response rating, Wheat, Spring [4, 18]: 0
- Plant response rating, Wheat, Spring [4, 19]: 40
- Plant response rating, Wheat, Spring [4, 20]: 0
- Field Poppy plant response rating [5, 14]: 100
- Plant response rating, Field Poppy [5, 15]: 100
- Plant response rating, Field Poppy [5, 16]: 100
- Plant response rating (scale of 0 to 100), Field Poppy ([5]; Preemergence, 31 g ai/ha): 100
- Plant response rating, Field Poppy [5, 17]: 100
- Plant response rating, Field Poppy [5, 18]: 100
- Plant response rating, Field Poppy [5, 19]: 100
- Plant response rating, Field Poppy [5, 20]: 100
- Lambsquarters plant response rating [6, 14]: 95
- Plant response rating, Lambsquarters [6, 15]: 100
- Plant response rating, Lambsquarters [6, 16]: 100
- Plant response rating (scale of 0 to 100), Lambsquarters ([6]; Preemergence, 31 g ai/ha): 55
- Plant response rating, Lambsquarters [6, 17]: 95
- Plant response rating, Lambsquarters [6, 18]: 70
- Plant response rating, Lambsquarters [6, 19]: 95
- Plant response rating, Lambsquarters [6, 20]: 100
- Chickweed plant response rating [7, 14]: 100
- Plant response rating, Chickweed [7, 15]: 100
- Plant response rating, Chickweed [7, 16]: 100
- Plant response rating (scale of 0 to 100), Chickweed ([7]; Preemergence, 31 g ai/ha): 95
- Plant response rating, Chickweed [7, 17]: 100
- Plant response rating, Chickweed [7, 18]: 100
- Plant response rating, Chickweed [7, 19]: 100
- Plant response rating, Chickweed [7, 20]: 100
- Barley, Winter plant response rating [8, 14]: 0
- Plant response rating, Barley, Winter [8, 15]: 0
- Plant response rating, Barley, Winter [8, 16]: 10
- Plant response rating (scale of 0 to 100), Barley, Winter ([8]; Preemergence, 31 g ai/ha): 0
- Plant response rating, Barley, Winter [8, 17]: 0
- Plant response rating, Barley, Winter [8, 18]: 45
- Plant response rating, Barley, Winter [8, 19]: 45
- Plant response rating, Barley, Winter [8, 20]: 0
- Blackgrass plant response rating [9, 14]: 65
- Plant response rating, Blackgrass [9, 15]: 80
- Plant response rating, Blackgrass [9, 16]: 85
- Plant response rating (scale of 0 to 100), Blackgrass ([9]; Preemergence, 31 g ai/ha): 55
- Plant response rating, Blackgrass [9, 17]: 60
- Plant response rating, Blackgrass [9, 18]: 70
- Plant response rating, Blackgrass [9, 19]: 85
- Plant response rating, Blackgrass [9, 20]: 75
- Chamomile plant response rating [10, 14]: 100
- Plant response rating, Chamomile [10, 15]: 100
- Plant response rating, Chamomile [10, 16]: 100
- Plant response rating, Chamomile [10, 20]: 100
- Barley, Spring plant response rating [11, 14]: 0
- Plant response rating, Barley, Spring [11, 15]: 0
- Plant response rating, Barley, Spring [11, 16]: 10
- Plant response rating (scale of 0 to 100), Barley, Spring ([11]; Preemergence, 31 g ai/ha): 0
- Plant response rating, Barley, Spring [11, 17]: 0
- Plant response rating, Barley, Spring [11, 18]: 0
- Plant response rating, Barley, Spring [11, 19]: 5
- Plant response rating, Barley, Spring [11, 20]: 0
- Wheat, Winter plant response rating [12, 14]: 0
- Plant response rating, Wheat, Winter [12, 15]: 5
- Plant response rating, Wheat, Winter [12, 16]: 5
- Plant response rating (scale of 0 to 100), Wheat, Winter ([12]; Preemergence, 31 g ai/ha): 0
- Plant response rating, Wheat, Winter [12, 17]: 0
- Plant response rating, Wheat, Winter [12, 18]: 5
- Plant response rating, Wheat, Winter [12, 19]: 5
- Plant response rating, Wheat, Winter [12, 20]: 0
- Deadnettle plant response rating [13, 14]: 15
- Plant response rating, Deadnettle [13, 15]: 35
- Plant response rating, Deadnettle [13, 16]: 60
- Plant response rating (scale of 0 to 100), Deadnettle ([13]; Preemergence, 31 g ai/ha): 0
- Plant response rating, Deadnettle [13, 17]: 0
- Plant response rating, Deadnettle [13, 18]: 5
- Plant response rating, Deadnettle [13, 19]: 55
- Plant response rating, Deadnettle [13, 20]: 35
